Source: patent publication US20250041571A1, “DRUG COATED MEDICAL DEVICES” (Vanderbilt University, priority 2023, published 2025)
Entries after “also recorded” stand apart in the source; their conditions may differ.

Tests used:
ex vivo rat aortas [1] = assay: MK2i transfer from coated balloons to ex vivo rat aorta (confocal fluorescence, tissue lysate fluorescence); type: in vitro ADME
Procedure: Aorta treatment: Harvested aortas were damaged with an angioplasty balloon prior to treatment (3×, 15 seconds each, 25% overstretch). Coated balloons were then inserted into the aorta and pressurized for 3 minutes in DMEM (+HEPES, +L-glutamine, +3% FBS, +1% Antibiotic/Antimycotic), with deflation and reinflation at each minute mark to allow for maximum release and tissue transfer. After 3 minutes, the balloon was deflated and removed. The treated artery was then washed briefly with DMEM to remove excess MK2i and then processed for further experimentation or data collection. […]
Delivery visualization and quantification: Immediately after aorta treatment, samples were placed into OCT and frozen for cryosectioning. […] Then, total intensity of MK2i-568 within the arterial wall was calculated by subtracting the intensity of the inside segment from the intensity of the total segment. […]
MK2i Delivery and Retention Quantification: Tissue lysates prepped for western blotting were measured for presence of fluorescently labeled MK2i to quantify tissue delivery and retention. Tissue lysate fluorescence was measured on a TECAN Infinite M1000 Pro plate reader and compared to a standard curve of fluorescent MK2i to calculate tissue MK2i concentration. […]

[2] = tested on: cells of ex vivo rat aortas (isolated SMCs); assay: Cellular uptake of fluorescent MK2i in treated rat aortas by flow cytometry; type: cell-based; conditions: flow cytometry 1 hour after treatment
Procedure: Flow Cytometry: After aorta treatment, samples were incubated in DMEM (+HEPES, +L-glutamine, +3% FBS, +1% Antibiotic/Antimycotic) for 1 hour to allow for cell uptake. The aortas were subsequently transferred to 500 μL of cold PBS+1% FBS and cut with scissors into small (˜1 mm) sized pieces. Digestion media in DMEM was then added to the PBS/tissue tube (500 μL) to achieve a final enzyme concentration of 0.7 mg/mL liberase, 4 mg/mL collagenase, and 0.2 mg/mL DNase and the tubes were placed in a 37° C. incubator on a shaker for ˜90 minutes or until digestion was apparent. After incubation, the samples were filtered through a 70 μm cell strainer and centrifuged at 500 g for 8 minutes. […] Cells were read for fluorescence on a Guava easyCyte HT and the resulting data was processed in FlowJo.
MK2i tissue transfer and cell uptake: Coated balloons (6 layers, 100 μM MK2i, 10 μM PPAA) were inflated in ex vivo rat aortas for 3 minutes and samples were cryosectioned to visualize fluorescent MK2i delivery (FIG. 9A, FIG. 9B, and FIG. 9C). ROIs were drawn around the vessel wall and total MK2i fluorescence was normalized to vessel wall cross sectional area. […] Cellular uptake was also measured with flow cytometry, quantifying cellular association of fluorescent MK2i within the treated tissue. […]

[3] = Balloon loading and release quantification (3 min PBS soak, DMSO strip, fluorescence); type: physicochemical
Procedure: Balloon loading and release quantification: Angioplasty balloons (2.5 mm×20 mm) were coated with PPAA and MK2i-568 and then soaked in PBS with calcium and magnesium for 3 minutes to measure balloon release. The balloons were then soaked again in DMSO under sonication for 3 minutes to remove any remaining MK2i layers. The fluorescence of the PBS and DMSO solutions was measured on a TECAN Infinite M1000 Pro plate reader and compared to a standard curve of MK2i-568 in PBS and DMSO, respectively.
Balloon Loading and Release: Balloon release and total loading was quantified for different lactosucrose (LS) coating conditions. […] The fluorescence of these two solutions was then measured and used to quantify MK2i concentration (FIG. 5B and FIG. 5C).
Increasing balloon loading and release: To increase the amount of MK2i loaded onto and released from the balloons, two strategies were compared. […] Loading and release were measured as before—3 min wash in PBS followed by sonication in DMSO. The solution fluorescence was measured to determine loading and release.
Balloon loading and release quantification: Angioplasty balloons (2.5 mm×20 mm, Maverick OTW, Boston Scientific) were coated with PPAA and MK2i-568 and then soaked in PBS with calcium and magnesium for 3 minutes to measure balloon release. […]

ex vivo rat aortas [4] = assay: Immunofluorescence of balloon damaged rat aortas after 7 d in flow loop bioreactor; type: cell-based; conditions: 7 d after balloon injury

Row | Molecule | MK2i transfer to the tissue (fluorescence in vessel wall) (ex vivo rat aortas [1]; immediately after 3 min balloon inflation) | depth of MK2i delivery into the vessel wall (intensity profile) (ex vivo rat aortas [1]; immediately after balloon inflation) | cellular / intracellular uptake of MK2i [2] | MK2i release from balloon ([3]; 3 minutes in PBS) | MK2i loading (comparison in words) ([3]; between coating conditions) | MYH expression (ex vivo rat aortas [4]) | SM22 expression (ex vivo rat aortas [4])
1 | OC[C@H]1O[C@@H](O[C@H]2[C@H](O)[C@@H](O)[C@@H](O[C@]3(CO)O[C@H](CO)[C@@H](O)[C@@H]3O)O[C@@H]2CO)[C@H](O)[C@@H](O)[C@H]1O [LS, lactosucrose] | benefited; also recorded: increased MK2i transfer to the tissue | modest effect on increasing the depth of delivery | benefited; also recorded: significantly increased the intracellular uptake | did not yield any differences | did not yield any differences |  | 
2 | MAPKAP Kinase II inhibitory peptide [MK2i] |  |  |  |  |  | preserving expression | preserving expression
